Data set [1] can be described thus: % aliskiren hemifumarate recovered as M12 in urine following single oral dose of 300 mg [14C]SPP100 studied in healthy men. The class given is ADME, organism-based. Particulars: human, in vivo.
Data set [2] can be described thus: % aliskiren hemifumarate recovered as M12 in faeces following single oral dose of 300 mg [14C]SPP100 studied in healthy men. The class given is ADME, organism-based, Feces. To be noted: human, in vivo, at 300 mg.
A short description of data set [3]: % aliskiren hemifumarate recovered as M12 in urine and faeces following single oral dose of 300 mg [14C]SPP100 studied in healthy men. To be noted: human, in vivo, at 300 mg. The class given is ADME, organism-based, Urine/Feces.
The nature of data set [4]: % of radioactivity recovered as M12 in plasma following oral administration of [14C] aliskiren hemifumarate at 100 mg.Kg-1 level in rat. The class given is ADME, organism-based, Albino HAN:WIST. Particulars: in vivo.
The nature of data set [5]: % of radioactivity recovered as M12 in urine following oral administration of [14C] aliskiren hemifumarate at 100 mg.Kg-1 level in rat. To be noted: in vivo. Format: ADME, organism-based, Albino HAN:WIST.
The nature of data set [6]: % of radioactivity recovered as M12 in faeces following oral administration of [14C] aliskiren hemifumarate at 100 mg.Kg-1 level in rat. The class given is ADME, organism-based, Albino HAN:WIST, Feces. Particulars: in vivo.
Data set [7] in a line: % of radioactivity recovered as M12 in plasma following intravenous administration of [14C] aliskiren hemifumarate at 10 mg.Kg-1 level in rat. The class given is ADME, organism-based, Albino HAN:WIST. To be noted: in vivo.
Data set [8] can be described thus: % of radioactivity recovered as M12 in urine following intravenous administration of [14C] aliskiren hemifumarate at 10 mg.Kg-1 level in rat. Format: ADME, organism-based, Albino HAN:WIST. To be noted: in vivo.
Data set [9] can be described thus: % of radioactivity recovered as M12 in faeces following intravenous administration of [14C] aliskiren hemifumarate at 10 mg.Kg-1 level in rat. Format: ADME, organism-based, Albino HAN:WIST, Feces. To be noted: in vivo.
Data set [10] is described as follows: % aliskiren recovered as metabolite M12 in plasma following 10 day repeated oral administration of [14C] aliskiren hemifumarate at 100 mg.Kg-1 level studied in rat. The class given is ADME, organism-based, Albino HAN:WIST. Particulars: in vivo, 240 h.
Data set [11] in a line: % aliskiren recovered as metabolite M12 in urine following 10 day repeated oral administration of [14C] aliskiren hemifumarate at 100 mg.Kg-1 level studied in rat. Format: ADME, organism-based, Albino HAN:WIST. Particulars: in vivo, 240 h.
A short description of data set [12]: % aliskiren recovered as metabolite M12 in faeces following 10 day repeated oral administration of [14C] aliskiren hemifumarate at 100 mg.Kg-1 level studied in rat. To be noted: in vivo, 240 h. Format: ADME, organism-based, Albino HAN:WIST, Feces.
A short description of data set [13]: % aliskiren hemifumarate recovered as M9 in urine following single oral dose of 300 mg [14C]SPP100 studied in healthy men. Format: ADME, organism-based. Particulars: human, in vivo.
Data set [14] can be described thus: % aliskiren hemifumarate recovered as M9 in faeces following single oral dose of 300 mg [14C]SPP100 studied in healthy men. The class given is ADME, organism-based, Feces. Particulars: human, in vivo.
Data set [15] is described as follows: % aliskiren hemifumarate recovered as M9 in urine and faeces following single oral dose of 300 mg [14C]SPP100 studied in healthy men. Format: ADME, organism-based, Urine/Feces. Particulars: human, in vivo.
Data set [16] in a line: % of radioactivity recovered as M9 from M2 in plasma following oral administration of [14C] aliskiren hemifumarate at 100 mg.Kg-1 level in rat. Format: ADME, organism-based, Albino HAN:WIST. Particulars: in vivo.
The nature of data set [17]: % of radioactivity recovered as M9 from M2 in urine following oral administration of [14C] aliskiren hemifumarate at 100 mg.Kg-1 level in rat. The class given is ADME, organism-based, Albino HAN:WIST. Particulars: in vivo.
Data set [18] is described as follows: % of radioactivity recovered as M9 from M2 in faeces following oral administration of [14C] aliskiren hemifumarate at 100 mg.Kg-1 level in rat. The class given is ADME, organism-based, Albino HAN:WIST, Feces. To be noted: in vivo.
Data set [19] is described as follows: % of radioactivity recovered as M9 from M2 in plasma following intravenous administration of [14C] aliskiren hemifumarate at 10 mg.Kg-1 level in rat. Particulars: in vivo. The class given is ADME, organism-based, Albino HAN:WIST.
Data set [20] is described as follows: % of radioactivity recovered as M9 from M2 in urine following intravenous administration of [14C] aliskiren hemifumarate at 10 mg.Kg-1 level in rat. Format: ADME, organism-based, Albino HAN:WIST. Particulars: in vivo.
Data set [21] is described as follows: % of radioactivity recovered as M9 from M2 in faeces following intravenous administration of [14C] aliskiren hemifumarate at 10 mg.Kg-1 level in rat. The class given is ADME, organism-based, Albino HAN:WIST, Feces. Particulars: in vivo.
Data set [22] can be described thus: % aliskiren recovered as metabolite M9 in plasma following 10 day repeated oral administration of [14C] aliskiren hemifumarate at 100 mg.Kg-1 level studied in rat. Format: ADME, organism-based, Albino HAN:WIST. Particulars: in vivo, 240 h.
Data set [23] is described as follows: % aliskiren recovered as metabolite M9 in urine following 10 day repeated oral administration of [14C] aliskiren hemifumarate at 100 mg.Kg-1 level studied in rat. The class given is ADME, organism-based, Albino HAN:WIST. Particulars: in vivo, 240 h.
A short description of data set [24]: % aliskiren recovered as metabolite M9 in faeces following 10 day repeated oral administration of [14C] aliskiren hemifumarate at 100 mg.Kg-1 level studied in rat. Format: ADME, organism-based, Albino HAN:WIST, Feces. To be noted: in vivo, 240 h.
Data set [25] addresses T1, CYP2A6 (Homo sapiens, UniProt P11509).
T1 sequence (P11509 whole entry): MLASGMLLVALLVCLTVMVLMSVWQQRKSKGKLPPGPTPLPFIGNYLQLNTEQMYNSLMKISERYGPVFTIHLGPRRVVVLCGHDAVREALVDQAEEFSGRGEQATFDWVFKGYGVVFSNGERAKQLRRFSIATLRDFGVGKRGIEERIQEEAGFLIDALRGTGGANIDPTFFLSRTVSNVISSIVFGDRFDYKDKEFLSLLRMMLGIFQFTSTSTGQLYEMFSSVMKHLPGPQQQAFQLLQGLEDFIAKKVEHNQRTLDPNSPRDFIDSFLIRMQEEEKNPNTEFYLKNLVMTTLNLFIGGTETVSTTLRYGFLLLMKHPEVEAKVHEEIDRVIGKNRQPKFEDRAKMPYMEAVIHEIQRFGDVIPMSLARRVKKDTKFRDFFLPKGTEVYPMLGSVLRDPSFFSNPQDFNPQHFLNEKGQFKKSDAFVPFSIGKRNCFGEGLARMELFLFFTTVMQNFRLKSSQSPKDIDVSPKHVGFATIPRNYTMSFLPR
The experiment in a line: in vitro. Particulars: probe coumarine.

Data set [26] addresses T1, CYP2A6. The experiment in a line: in vitro. To be noted: probe coumarine. The source holds these as a separate data set.
Data set [27] concerns the target T1, CYP2A6. The experiment in a line: in vitro. To be noted: probe coumarine. This is another data set of the same source.
The target in data set [28] is T2, CYP2C19 (Homo sapiens, UniProt P33261). In words: in vitro. To be noted: probe (S)-mephenytoin (50 uM).
T2 sequence (P33261 whole entry): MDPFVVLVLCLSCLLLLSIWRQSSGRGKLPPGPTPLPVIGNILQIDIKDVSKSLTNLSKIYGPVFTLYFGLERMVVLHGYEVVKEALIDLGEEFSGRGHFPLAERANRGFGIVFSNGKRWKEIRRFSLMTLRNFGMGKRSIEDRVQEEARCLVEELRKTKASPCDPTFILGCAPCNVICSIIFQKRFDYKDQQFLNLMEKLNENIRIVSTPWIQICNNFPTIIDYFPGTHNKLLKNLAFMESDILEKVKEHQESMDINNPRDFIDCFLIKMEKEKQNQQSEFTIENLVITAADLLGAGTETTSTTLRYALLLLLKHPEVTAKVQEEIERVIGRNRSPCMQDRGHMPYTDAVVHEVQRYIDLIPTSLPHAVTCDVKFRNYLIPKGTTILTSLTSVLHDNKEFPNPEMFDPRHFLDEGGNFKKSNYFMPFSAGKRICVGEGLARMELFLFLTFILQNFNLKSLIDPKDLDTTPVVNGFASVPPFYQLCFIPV
Description: Inhibitory activity of 100 uM tranylcypromine on 49 Pmoles of cDNA-derived CYP2C19 enzyme in microsome prepared from human lymphoblastoid cell line
Data set [29] has as its target T2, CYP2C19. In words: in vitro. Particulars: probe (S)-mephenytoin (50 uM). The source holds these as a separate data set.
Description: Inhibitory activity of 100 uM tranylcypromine on 34 Pmoles of cDNA-derived CYP2C19 enzyme in microsome prepared from human lymphoblastoid cell line

SMILES strings stand for the structures.

As for `COCCCOc1cc(C[C@@H](C[C@H](NC(C)=O)[C@@H](O)C[C@H](C(=O)NCC(C)(C)C(N)=O)C(C)C)C(C)C)ccc1OC`, the Compound recovery result in data set [1] is listed as “OUTCOME = Not detected”; in data set [2] it was < 1%; in [3], < 1%; in [4], “OUTCOME = Not detected or not investigated”; in data set [5] it was “OUTCOME = Not detected or not investigated”; in data set [6] it was “<= 2%”. For the same compound, the Compound recovery result is on record as “OUTCOME = Not detected or not investigated” in data set [7]; “OUTCOME = Not detected or not investigated” in data set [8]; “OUTCOME = Not detected or not investigated” in data set [9]; “OUTCOME = Not detected” in [10]; “OUTCOME = Not detected” in data set [11]; “OUTCOME = Observed, VALUE = Measurable quantities” in [12].
Take `COCCCOc1cc(C[C@@H](C[C@H](N)[C@@H]2C[C@H](C(C)C)C(=O)O2)C(C)C)ccc1OC`: the Compound recovery result was “OUTCOME = Not detected” in data set [13]; “OUTCOME = Not detected” in data set [14]; “OUTCOME = Not detected” in data set [15]; “OUTCOME = Not detected or not investigated” in data set [16]; “OUTCOME = Non-radiolabeled metabolite was observed by LC-MS” in [17]; “OUTCOME = Not detected or not investigated” in [18]. Further, the Compound recovery entry in data set [19] is reported as “OUTCOME = Not detected or not investigated”; in data set [20], “OUTCOME = Not detected or not investigated”; in [21], “OUTCOME = Not detected or not investigated”; in data set [22], “OUTCOME = Observed, VALUE = Minor amounts”; in data set [23] it was “OUTCOME = Observed, VALUE = Minor amounts”; in data set [24] it was “OUTCOME = Observed, VALUE = Minor amounts”.
Take `N[C@@H]1C[C@H]1c1ccccc1.N[C@H]1C[C@@H]1c1ccccc1` [TRANYLCYPROMINE]: the inhibition (usually the change of the read-out against control, counted positive when it falls) at 100 µM against CYP2A6 [25] turned out to be 97%; on CYP2A6 [26] it was 98%; at CYP2A6 [27], 99%; at CYP2C19 [28] it was 96%; against CYP2C19 [29], 97%.

The record behind these values is ChEMBL document CHEMBL3508693 (2016).
